In ChEMBL document CHEMBL1201862, “PubChem BioAssay data set” (2004):
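A five-concentration, 48-hour dose response in 96-well plates underlies each endpoint, interpolated linearly between surrounding concentrations. GI50: concentration for 50% inhibition of growth.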 Calls of active or inactive are those of the source. Cut-off read from the data, not from the text of the source: active = GI50 up to about 1.1 µM and inactive = higher.

Legend:
Assay in all cases: NCI tumour cell line growth inhibition, 48 h
CCRF-CEM = system: CCRF-CEM
Hs-578T = system: Hs-578T
SN12C = system: SN12C
RXF 393 = system: RXF 393
K562 = system: K562
LOX IMVI = system: LOX IMVI
DU-145 = system: DU-145
SR = system: SR
KM12 = system: KM12
OVCAR-5 = system: OVCAR-5
OVCAR-3 = system: OVCAR-3
HL-60 = system: HL-60
HCT-116 = system: HCT-116
HOP-92 = system: HOP-92
RPMI-8226 = system: RPMI-8226
NCI-H522 = system: NCI-H522
MDA-MB-435 = system: MDA-MB-435
EKVX = system: EKVX
SK-OV-3 = system: SK-OV-3

SMILES | GI50 (CCRF-CEM) | GI50 (Hs-578T) | GI50 (SN12C) | GI50 (RXF 393) | GI50 (K562) | GI50 (LOX IMVI) | GI50 (DU-145) | GI50 (SR) | GI50 (KM12) | GI50 (OVCAR-5) | GI50 (OVCAR-3) | GI50 (HL-60) | GI50 (HCT-116) | GI50 (HOP-92) | GI50 (RPMI-8226) | GI50 (NCI-H522) | GI50 (MDA-MB-435) | GI50 (EKVX) | GI50 (SK-OV-3)
C/C(=C\c1ccc2c(c1)OCO2)[N+](=O)[O-] | < 0.01 µM (active) | 5.14 µM (inactive) | 3.38 µM (inactive) | 1.46 µM (inactive) | 1.64 µM (inactive) | 0.315 µM (active) | 2.23 µM (inactive) | 0.323 µM (active) | 1.54 µM (inactive) | 3.96 µM (inactive) | 1.66 µM (inactive) | 1.46 µM (inactive) | 7.16 µM (inactive) | 2.51 µM (inactive) | 0.225 µM (active) | 1.64 µM (inactive) | 2.21 µM (inactive) | 4.08 µM (inactive) | –
CCN(CC)CC1CCCCN1CC(=O)N1c2ccc(Br)cc2C(=O)Nc2cccnc21 (stereo not given) | > 100 µM (inactive) | > 100 µM (inactive) | > 100 µM (inactive) | > 100 µM (inactive) | > 100 µM (inactive) | > 100 µM (inactive) | > 100 µM (inactive) | 57 µM (inactive) | > 100 µM (inactive) | > 100 µM (inactive) | > 100 µM (inactive) | > 100 µM (inactive) | > 100 µM (inactive) | 80.4 µM (inactive) | > 100 µM (inactive) | > 100 µM (inactive) | > 100 µM (inactive) | > 100 µM (inactive) | > 100 µM (inactive)
Clc1cc(C(c2cc(Cl)sc2Cl)c2cc(Cl)sc2Cl)c(Cl)s1 | > 100 µM (inactive) | > 100 µM (inactive) | > 100 µM (inactive) | > 100 µM (inactive) | > 100 µM (inactive) | > 100 µM (inactive) | > 100 µM (inactive) | > 100 µM (inactive) | > 100 µM (inactive) | > 100 µM (inactive) | > 100 µM (inactive) | > 100 µM (inactive) | > 82.2 µM (inactive) | > 100 µM (inactive) | > 100 µM (inactive) | > 100 µM (inactive) | > 100 µM (inactive) | > 100 µM (inactive) | > 100 µM (inactive)
COc1ccc(/C=C2\C=Cc3ccccc32)cc1OC | 57.1 µM (inactive) | 29.9 µM (inactive) | 60 µM (inactive) | 50.4 µM (inactive) | 29.8 µM (inactive) | > 100 µM (inactive) | > 100 µM (inactive) | 50.9 µM (inactive) | > 100 µM (inactive) | > 100 µM (inactive) | > 100 µM (inactive) | 10.9 µM (inactive) | 91.2 µM (inactive) | 6.49 µM (inactive) | – | 30.4 µM (inactive) | > 100 µM (inactive) | 22.5 µM (inactive) | 76.2 µM (inactive)
Cn1c(-c2ccc(-c3cc(-c4cccs4)c(-c4cccs4)n3C)cc2)cc(-c2cccs2)c1-c1cccs1 | > 100 µM (inactive) | > 100 µM (inactive) | > 100 µM (inactive) | > 100 µM (inactive) | > 100 µM (inactive) | – | > 100 µM (inactive) | > 100 µM (inactive) | > 100 µM (inactive) | – | – | > 100 µM (inactive) | > 100 µM (inactive) | – | > 100 µM (inactive) | – | > 100 µM (inactive) | > 100 µM (inactive) | > 100 µM (inactive)
COc1cc(OC)c2nc(C)c3c(c2c1)SCC3 | > 100 µM (inactive) | 19.8 µM (inactive) | 25.5 µM (inactive) | 24.3 µM (inactive) | > 100 µM (inactive) | 32.7 µM (inactive) | 44.8 µM (inactive) | 20.5 µM (inactive) | 68.5 µM (inactive) | 29.6 µM (inactive) | 19.2 µM (inactive) | 78 µM (inactive) | 22.2 µM (inactive) | – | 25.9 µM (inactive) | 36.1 µM (inactive) | 25.5 µM (inactive) | 10.1 µM (inactive) | 27.7 µM (inactive)
CN(C)c1ccc(C2CC(C)(O)Oc3cc4c(cc32)OCO4)cc1 (stereo not given) | 33.6 µM (inactive) | 61 µM (inactive) | 25.4 µM (inactive) | 32.7 µM (inactive) | 48 µM (inactive) | 31.6 µM (inactive) | > 100 µM (inactive) | 9.33 µM (inactive) | 30 µM (inactive) | 75.9 µM (inactive) | 64.3 µM (inactive) | 46.3 µM (inactive) | 34.5 µM (inactive) | 25.9 µM (inactive) | 19.7 µM (inactive) | 19.1 µM (inactive) | 13.6 µM (inactive) | 48.9 µM (inactive) | 48.8 µM (inactive)
COc1ccc(CC2C3=C(CCN2C(=O)C2CCC2)CC2(CC3)OCCO2)cc1O (stereo not given) | 35.2 µM (inactive) | 30.6 µM (inactive) | 29.6 µM (inactive) | 15.7 µM (inactive) | 22.6 µM (inactive) | > 100 µM (inactive) | 26.5 µM (inactive) | 10.5 µM (inactive) | 31.3 µM (inactive) | > 100 µM (inactive) | 18 µM (inactive) | 18.8 µM (inactive) | 34.6 µM (inactive) | 62.8 µM (inactive) | 36.6 µM (inactive) | 17.9 µM (inactive) | 6.7 µM (inactive) | 38.8 µM (inactive) | 30.5 µM (inactive)
C/C(=N/NC(=S)Nc1ccc(Cl)cc1)c1cccc(/C(C)=N\NC(=S)Nc2ccc(Cl)cc2)n1 | 1.68 µM (inactive) | – | 10.7 µM (inactive) | 4.01 µM (inactive) | 5.02 µM (inactive) | 4.58 µM (inactive) | 26.1 µM (inactive) | 1.19 µM (inactive) | 3.66 µM (inactive) | 20 µM (inactive) | 1.49 µM (inactive) | – | 2.9 µM (inactive) | 3.17 µM (inactive) | 4.74 µM (inactive) | 4.29 µM (inactive) | 12.3 µM (inactive) | 5.45 µM (inactive) | 7.6 µM (inactive)
CCOC1OCCCC1Br (stereo not given) | > 100 µM (inactive) | > 100 µM (inactive) | > 100 µM (inactive) | > 100 µM (inactive) | > 100 µM (inactive) | > 100 µM (inactive) | > 100 µM (inactive) | > 100 µM (inactive) | > 100 µM (inactive) | > 100 µM (inactive) | > 100 µM (inactive) | – | > 100 µM (inactive) | > 100 µM (inactive) | > 100 µM (inactive) | > 100 µM (inactive) | > 100 µM (inactive) | > 100 µM (inactive) | > 100 µM (inactive)
CCOC(=O)c1oc2c(OC)cc(Cl)c3c2c1CCC3 | > 100 µM (inactive) | – | 64.7 µM (inactive) | 24.2 µM (inactive) | > 100 µM (inactive) | > 100 µM (inactive) | – | > 100 µM (inactive) | > 100 µM (inactive) | > 100 µM (inactive) | 13.6 µM (inactive) | > 100 µM (inactive) | 44.3 µM (inactive) | 20.7 µM (inactive) | > 100 µM (inactive) | 29.2 µM (inactive) | – | > 100 µM (inactive) | 50.8 µM (inactive)
